The results in this text go back to US20100137344A1, “INDUCTION OF ANALGESIA IN NEUROPATHIC PAIN” (University Court of the University of Edinburgh, priority 2006, published 2010).

The subject of this experiment is saphenous nerve afferents. The experiment in a line: Saphenous nerve afferent recordings after topical application to receptive field. The format is in vivo, rat. From the text: Antisense and mis-sense oligonucleotides were 22-mers with phosphorothioate bonds at the last two positions at 5′ and 3′ ends (MWG Biotech, Ebersberg, Germany). Antisense extended from base −10 to base +12 relative to the start of the open reading frame for the rat TRPM8 gene: 5′ C*T*CGAAGGACATCTTGCCGT*G*G 3′, where * represents phosphorothioate linkages. Mis-sense was designed with 4 inversions of C/G or A/T as appropriate at residues 3, 11, 14 and 22, preserving overall G/C content. BLAST searches of both oligonucleotides indicated no significant complementarity to any known gene sequence. 14-day or 7-day osmotic minipumps (for CCI experiments or naïve electrophysiology experiments respectively—Alzet Minipump, models 2002, 2001; Charles River, UK) containing oligonucleotides (1 μg/μl in sterile saline) were connected to canulae inserted under the dura of the spinal cord to level L5/6 and produced a predicted infusion rate of 0.5 μl/h. CCI surgery was performed at the same time as minipump implantation. Sensory tests were carried out to assess the time-course of behavioural sensitisation in animals which had also undergone a CCI injury. Icilin was applied topically rather than intrathecally so as to prevent any interference with the infusion canula. Peripheral nerve recordings and tissue harvesting were carried out after an interval of 4-5 days to allow time for protein knockdown.
Peripheral: Recordings of saphenous (sensory) nerve were made in naïve animals (n=7) to assess the effects of topical icilin on primary afferents. In addition, recordings were carried out on animals which had undergone TRPM8 antisense or mis-sense treatment beginning 4-5 days previously. Rats were anaesthetised (with 0.6 ml 25% urethane/100 g, i.p.) and the saphenous nerve was exposed and dissected from its associated vein and artery. Further dissection under liquid paraffin enabled identification of afferent preparations comprising a small number of fibres. The conduction velocity of single identified afferent fibres was determined using bipolar electrodes and the peripheral stimulus technique^[43]. Following isolation of preparations, icilin (200 μM in water with 0.2% DMF), (−)-menthol (4 mM in 25% ethanol) resiniferatoxin (1 mM in ethanol) or vehicle alone were applied to the hindlimb receptive fields and neuronal responses recorded using the Chart programme (version 3.6). Central: Recordings of spinal dorsal horn neurons were made in CCI animals, as described previously^[39]. Following halothane induction, the jugular vein and trachea were canulated and intravenous anaesthetic delivered: α-chloralose ([…], Fisher) and urethane ([…], Sigma), with small supplementary doses of α-chloralose as required throughout the experiment. Core body temperature was maintained at 37-38° C. by means of a thermostatically controlled heated blanket. The animal was placed in a stereotaxic frame, and the thoracolumbar spinal column was supported using three pairs of swan-necked clamps. A laminectomy was performed at L2-L5, and agar (2% in saline at 37° C.) was delivered over exposed cord to increase mechanical stability. Above the recording region the agar and spinal cord dura were removed and liquid paraffin poured into the pool. Extracellular recordings were made from single multireceptive neurons in laminae I-IV through the centre barrel of a seven-barrelled glass microelectrode filled with 4M NaCl (tip-diameter […], DC resistance 5-8 MΩ). The receptive fields of hair-follicle innervated neurons on the distal hindlimb were identified by an innocuous brush stimulus^[39]. Icilin (200 μM in water with 0.2% DMF) was applied peripherally to the receptive field of individual recorded neurons, and the effect on neuronal response to a rotating brush was recorded and analysed using Spike2 programme (Version 3.2, CED). […]

Where [1] appears, read: antisense-treated animals, topical icilin 200 μM, (−)-menthol 4 mM, resiniferatoxin 1 mM.
Setting [2] is: mis-sense-treated animals, topical icilin 200 μM, (−)-menthol 4 mM.
Setting [3] is: mis-sense-treated animals, topical icilin 200 μM, (−)-menthol 4 mM, resiniferatoxin 1 mM.

For the molecule `O=C1NC(c2cccc([N+](=O)[O-])c2)=CCN1c1ccccc1O` [icilin, 1-(2′-hydroxyphenyl)-4-(3″-nitrophenyl)-1,2,3,6-tetrahydropyrimidin-2-one], the “firing frequency after drug” value runs as follows: under setting [1], 12.7±0.6 Hz; (icilin 200 μM, naïve animals, baseline 4.5±2.5 Hz) 31.6 Hz; under setting [3], 23.1±3.2 Hz. In addition, the “increase in firing frequency” value reads like this: (antisense-treated animals, topical icilin 200 μM, resiniferatoxin 1 mM) “approximately 2 fold”; under setting [3], 7 fold. Moreover, for the setting “antisense-treated naïve animals, icilin 200 μM topical, 3 out of 34”, the “recorded slowly conducting fibres activated” value is 8.8%. In addition, the “recorded fine afferents with significant increase in firing frequency” value (icilin 200 μM to receptive field, naïve animals, 40 out of 185) is given as 21.6%. For the same molecule, under “icilin 200 μM, conduction velocities 6.8-15 ms^−1, n=43”, the “effect on large myelinated mechanoreceptors” value is “unaffected”. The “mean time to peak effect” value (icilin 200 μM, naïve animals) was determined as 3.3 ± 0.5 min. Moreover, where the note is “icilin 200 μM, naïve animals, from baseline of 4.5±2.5 Hz”, the “mean increase in firing frequency” value amounted to 7 fold. This molecule also displayed a recorded fibres activated under setting [2] of 25%.
Take `CC(C)[C@@H]1CC[C@@H](C)C[C@H]1O` [(−)-menthol, 1R,2S,5R-(−)-menthol]: the activation of afferents entry (antisense-treated animals, (−)-menthol 4 mM, 28 identified afferents recorded) is listed as “no obviously activated afferents”. In addition, the “firing frequency after drug” value under setting [1] was 4.8±1.9 Hz. This molecule also showed a recorded fibres activated under setting [2] of 20%. Also, under setting [3], the “firing frequency after drug” value came to 38.9±7.6 Hz and the “increase in firing frequency” value is “approximately 8 fold”.
